Tests used:
[1] = test system: patients with Crohn's disease; details: cited from earlier work
patients = details: long-term use; cited from earlier work
osteoblast-like cells = details: cited from earlier work
tumor burden in bone = details: two separate studies, relatively small number of patients; cited from earlier work
rabbit model = assay: local response to subcutaneous injection, skin reaction scoring (erythema, eschar, edema, necrosis); assay type: in vivo
Description: A test was performed to evaluate the local response to pamidronate sodium following subcutaneous injection into a rabbit model.
The pamidronate sodium was reconstituted with 10 mL of phosphate buffered saline (PBS) to achieve a concentration of 9 mg/mL. The 9 mg/mL. solution was then diluted to achieve a concentration of 0.9 mg/mL.
On the day of the test, the fur on the back of each animal was removed on both sides of the spinal column with electric clippers. A 0.1 mL portion of two concentrations of the sample solution was injected subcutaneously at each of three sites along the spinal column of each of two rabbits. A 0.1 mL portion of PBS was injected subcutaneously at three sites along the other side of the spinal column of the same two rabbits. […] Scoring was at 24 hours, 48 hours, and 72 hours. All of the animals were observed daily for signs of ill health.
The injection sites were examined and scored for any tissue reactions, with results scored according to Table 1.
The average erythema and edema scores for each test article and controls are determined at each scoring interval (24, 48, and 72 hours) for each rabbit.

NCCCC(O)(P(=O)(O)O)P(=O)(O)O [alendronate]
safety and tolerability [1]: safe and well tolerated

NC(=O)N1c2ccccc2C=Cc2ccccc21 [carbamazepine]
bone mass in patients (patients): decrease bone mass
proliferation of osteoblast-like cells (osteoblast-like cells): directly suppress proliferation

O=P(O)(O)C(Cl)(Cl)P(=O)(O)O [clodronate]
tumor burden in bone (tumor burden in bone): decreases tumor burden in bone

NCCC(O)(P(=O)(O)O)P(=O)(O)O [pamidronate sodium]
injection site reaction (in words) (rabbit model; any of the 0.9 mg/mL sites): no evidence of erythema or edema
injection site reaction (in words) (rabbit model; one 9 mg/mL site on one rabbit, 48 and 72 hours): Slight erythema
injection site reaction (in words) (rabbit model; one of the 9 mg/mL sites, 24 hours, both animals): Slight erythema
signs of ill health, daily observation (rabbit model; rabbits, throughout the test period (72 hours)): remained healthy

O=C1NC(=O)C(c2ccccc2)(c2ccccc2)N1 [phenytoin]
bone mass in patients (patients): decrease bone mass
proliferation of osteoblast-like cells (osteoblast-like cells): directly suppress proliferation

From patent publication US20020151876A1, “Devices and methods for management of bone density” (priority 2001, published 2002)
